Measured values taken from article PMC9573699, “Deactivatable Bisubstrate Inhibitors of Protein Kinases” (Molecules, 2022).
Read-outs that look alike come from different tables or passages of the source. Non-standard residues stand in square brackets, D forms with d. Residues, ends and D or L forms follow the SMILES beside them. *: point of attachment. X2 = O=C(CCCCCCCC(=O)*)N1CCN(c2ncnc3[nH]ccc23)CC1

Columns and labels:
PKAcα [1] = molecular target: T1, PKAcα (Homo sapiens, UniProt P17612); test: FA-based competitive binding/displacement assay (probe ARC-583); conditions: for influence of TCEP on the displacement curve: FA assay, TCEP 1 mM
Source text: (§1) In the present work, photoluminescence-based competitive equilibrium binding assay was used to establish the KD and KD^app values of the novel compounds as determined before and after fragmentation, respectively. […] Two assay formats were used, which were designed for the determination of KD values of high-affinity bivalent inhibitors and the mixtures of their low-affinity fragments, respectively.
A typical assay setup based on the measurement of FA utilizes concentrations of the fluorescence probes slightly below the concentration of the target protein but higher than the KD^* to achieve maximal Δr. The assay in the present work was conducted at 2 nM ARC-583 and 3 nM PKAcα. […] Thus, the KD values for low-affinity compounds can be reliably established with this FA-based assay format.
The fluorescence intensity (FI), fluorescence anisotropy (FA), and time gated photoluminescence intensity (TGLI) measurements were performed with a PHERAstar (BMG Labtech) microplate reader. The FI and FA measurements of the photoluminescent probe ARC-583 were performed with FP optical module [EX 540(50) nm, EM 590(50) nm]. The detector was adjusted with solution of the free probe ARC-583 (in the absence of PKAcα). […] The TGLI measurements of photoluminescent probes ARC-1182 and ARC-1063 were performed with HTRF optical module (EX 330(50) nm, EM 675(50) nm). The TGLI was recorded for 200 µs after 60 µs delay from the flash-excitation.
Upon arrival, the stock solution of PKAcα was divided into batches and stored at −80 °C. After removal from a freezer at −80 °C, the batches of PKAcα were stored at 0 °C in an ice box until consumed, to avoid repetitive freeze-thaw cycles.
The microplates were incubated for 30 min at 30 °C before measurements. The measurements were repeated after 60 min to verify that the reactions had reached the equilibrium. […] Formation of the complex was observed by the change of FA and the concentration of PKAcα was calculated as previously described [40, 42]. […] First, the solutions were incubated for 30 min at 30 °C, thereafter the FA or TGLI signals were measured. Then, the stock solution of TCEP (1 µL) was added to all wells to the final concentration of 1 mM. The microplates were then incubated for an additional 30 min at 30 °C and the FA or TGLI signals were measured in the presence of TCEP. All experiments were carried out in at least two replicates (n ≥ 2) and the reported errors are the standard errors of the mean.
The anisotropy change (Δr) with respect to the anisotropy of free photoluminescent probe ARC-583 and the TGLI of the photoluminescent probes ARC-1182 and ARC-1063 were plotted as functions of log[I]T, where [I]T corresponds to the total concentration of the ‘dark’ ligand/inhibitor that competes with the probe for the binding to the catalytic subunit of PK ([I]T = [I] + [PK:I], where [I] and [PK:I] correspond to the equilibrium concentrations of unbound I and PK:I complex, respectively).

[2] = HPLC-MS analysis of the fragmentation of ARC-2121 and ARC-2194; type: physicochemical; conditions: TCEP 1 mM, pH 7.5, 30 °C
Description: At fixed time points (1, 10, 30, 60, and 120 min), 10 µL of the solution (corresponding to 1 nmol of the substrate) was injected into the RP-HPLC column.
ARC-2121 (200 µM) was dissolved in H2O:MeCN (10:1). ARC-2121 (200 µM, 20 µL) was irradiated for a fixed time (15, 30, 60, 90, and 120 s) inside a microtiter plate at room temperature (rt) using the custom-made 365 nm LED array (Figure S2). Then, 9 µL (1.7 nmol) of the solution was injected into the RP-HPLC column.

PKAcα [3] = test: Estimated dynamic range of enzyme activity change upon deactivation (Equations 2, 3); conditions: estimated from change of KD app / IC50 upon deactivation
Source text: In general, deactivation of an inhibitor can be observed by a shift of a dose-response curve in a biochemical assay, which is caused by the increase of IC50 value from IC50^ON (the IC50 of the active inhibitor) to IC50^OFF (the IC50 of the deactivated inhibitor). The fraction of the active enzyme before and after applying the trigger depends on the initial concentration of the deactivatable inhibitor. If the sigmoidal dose–response model describes the concentration dependencies of the inhibition before and after applying the stimulus, the biggest change of the fraction of the active enzyme in the solution is observed at the concentration of the inhibitor Iopt whose logarithm is the average of the corresponding logIC50 values (Equation (2)):(2) logIopt=1/2logIC50ON+logIC50OFF
The ratio of fractions of active enzyme after (a^maxopt) and before (a^minopt) deactivation of the inhibitor (i.e., the on/off ratio of the activity of the enzyme) is determined by the square root of the ratio of the corresponding IC50 values (Equation (3)):(3) aoptmax/aoptmin=IC50OFF/IC50ON^1/2
Thus, the larger the difference between IC50^ON and IC50^OFF values is (ΔIC50), the higher the dynamic range of activity change (Δaopt = a^maxopt − a^minopt) of the enzyme is. […]

PKAcα [4] = conditions: cited from earlier work
PKAcα [5] = molecular target: T1, PKAcα
Source text: as §1
The first assay was based on the measurement of the time-gated photoluminescence signal intensity (TGLI) and it utilized ARC-Lum(Fluo) probes ARC-1063 or ARC-1182, which both emit long life-time photoluminescence signal when associated with a target PK [38]. ARC-1063 and ARC-1182 differ by the fluorescent label (Figure S7) and the choice between these probes was only based on the availability of the particular probe. […]
The displacement data were fitted to the previously described [40, 42] exact model of competitive binding (further explained in Appendix A) to determine KD and KD^app values, which were used as concentration- and probe-independent quantities to evaluate the deactivation efficiencies of the novel compounds.
The fluorescence intensity (FI), fluorescence anisotropy (FA), and time gated photoluminescence intensity (TGLI) measurements were performed with a PHERAstar (BMG Labtech) microplate reader. […] The TGLI was recorded for 200 µs after 60 µs delay from the flash-excitation. […]

PKAcα [6] = system: PKAcα; parameters: method as in PMID 17125267; conditions: cited from earlier work

Compound: NC(=O)CCCCCCCC(=O)N1CCN(c2ncnc3[nH]ccc23)CC1 [Compound 11a, 7DP-Pip-Nda-amide]
- Kd (PKAcα [1]): 460 ± 210 nM

Compound: N=C(N)NCCC[C@@H](NC(=O)[C@@H](CCCNC(=N)N)NC(=O)[C@@H](CCCNC(=N)N)NC(=O)[C@@H](CCCNC(=N)N)NC(=O)[C@@H](CCCNC(=N)N)NC(=O)[C@@H](CCCNC(=N)N)NC(=O)OCCSSCCOC(=O)N1CCN(c2ncnc3[nH]ccc23)CC1)C(N)=O [ARC-2194]
- time to quantitative conversion of parent compound to 1a ([2]; 100 µM): less than 1 min
- Δaopt (dynamic range of activity change of the enzyme) (PKAcα [3]): 98%

Compound: c1nc(N2CCNCC2)c2cc[nH]c2n1 [Compound 2a, 4-(piperazin-1-yl)-7H-pyrrolo [2,3-d]pyrimidine]
- Kd (PKAcα [1]): 550 ± 150 nM
- influence of TCEP on the displacement curve (PKAcα [1]): not influenced

Compound: N=C(N)NCCC[C@@H](NC(=O)CCCCCCCC(=O)N1CCN(c2ncnc3[nH]ccc23)CC1)C(=O)N[C@H](CCCNC(=N)N)C(=O)N[C@H](CCCNC(=N)N)C(=O)N[C@H](CCCNC(=N)N)C(=O)N[C@H](CCCNC(=N)N)C(=O)N[C@H](CCCNC(=N)N)C(=O)N[C@H](CCCCN)C(N)=O [ARC-1411] (X2-[dR][dR][dR][dR][dR][dR][dK]-NH2)
- Kd (PKAcα [4]; previously measured affinity): 0.003 nM
- influence of TCEP on the displacement curve (PKAcα [1]): not influenced
- Kd (PKAcα [5]): 0.003 ± 0.001 nM

Compound: O=S(=O)(NCCNC/C=C/c1ccc(Br)cc1)c1cccc2cnccc12 [Compound H-89]
- Kd (PKAcα [4]; H-89:PKAcα complex): 9 nM
- influence of TCEP on the displacement curve (PKAcα [1]): not influenced

Compound: hexa-D-arginine
- inhibitory potency (PKAcα [6]): millimolar

Compound: O=C(OCCS)N1CCN(c2ncnc3[nH]ccc23)CC1 [Compound 1a]
- fraction converted to 2a ([2]; after 2 h): more than 50%
